Format in all cases: biochemical
The target in one experiment is T1, Neutral endopeptidase (Oryctolagus cuniculus, UniProt P08049).
T1 construct: Neutral endopeptidase is purified from rabbit kidney; from tissue; host or cells: rabbit kidney
T1 sequence (P08049 1-750): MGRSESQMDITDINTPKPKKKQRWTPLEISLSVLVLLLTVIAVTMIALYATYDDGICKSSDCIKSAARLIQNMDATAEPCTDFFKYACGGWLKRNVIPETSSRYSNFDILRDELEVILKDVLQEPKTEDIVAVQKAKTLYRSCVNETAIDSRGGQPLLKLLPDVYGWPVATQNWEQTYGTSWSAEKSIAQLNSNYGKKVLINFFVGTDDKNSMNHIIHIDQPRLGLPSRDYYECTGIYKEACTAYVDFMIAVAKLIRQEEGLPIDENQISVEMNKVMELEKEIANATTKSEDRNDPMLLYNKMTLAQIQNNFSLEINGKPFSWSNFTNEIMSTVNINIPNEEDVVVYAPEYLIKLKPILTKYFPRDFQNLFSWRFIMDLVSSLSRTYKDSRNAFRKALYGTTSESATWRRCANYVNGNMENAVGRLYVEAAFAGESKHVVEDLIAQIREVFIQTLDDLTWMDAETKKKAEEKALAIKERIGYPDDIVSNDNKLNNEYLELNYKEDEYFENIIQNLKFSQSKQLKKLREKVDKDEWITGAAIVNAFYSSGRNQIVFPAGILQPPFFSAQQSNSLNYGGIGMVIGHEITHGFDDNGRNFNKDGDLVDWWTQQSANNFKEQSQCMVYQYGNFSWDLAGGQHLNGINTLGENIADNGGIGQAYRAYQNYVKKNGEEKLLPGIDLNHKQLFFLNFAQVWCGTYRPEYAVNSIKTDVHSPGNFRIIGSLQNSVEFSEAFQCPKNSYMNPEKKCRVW
Kind of experiment: Inhibition of neutral endopeptidase (fluorescent substrate DGNPA). The settings on record: NEP purified from rabbit kidney. The text has this: Neutral endopeptidase is purified from rabbit kidney according to the procedure described by Aubry et al. (Biochem. Cell Biol., 1987, 65, pp. 1037-1042).

Experiment [1] addresses T2, angiotensin I converting enzyme (ACE) (Rattus norvegicus, UniProt P47820).
T2 construct: ACE is purified from rat testicle; from tissue; host or cells: rat testicle
T2 sequence (P47820 1-775 isoform P47820-2): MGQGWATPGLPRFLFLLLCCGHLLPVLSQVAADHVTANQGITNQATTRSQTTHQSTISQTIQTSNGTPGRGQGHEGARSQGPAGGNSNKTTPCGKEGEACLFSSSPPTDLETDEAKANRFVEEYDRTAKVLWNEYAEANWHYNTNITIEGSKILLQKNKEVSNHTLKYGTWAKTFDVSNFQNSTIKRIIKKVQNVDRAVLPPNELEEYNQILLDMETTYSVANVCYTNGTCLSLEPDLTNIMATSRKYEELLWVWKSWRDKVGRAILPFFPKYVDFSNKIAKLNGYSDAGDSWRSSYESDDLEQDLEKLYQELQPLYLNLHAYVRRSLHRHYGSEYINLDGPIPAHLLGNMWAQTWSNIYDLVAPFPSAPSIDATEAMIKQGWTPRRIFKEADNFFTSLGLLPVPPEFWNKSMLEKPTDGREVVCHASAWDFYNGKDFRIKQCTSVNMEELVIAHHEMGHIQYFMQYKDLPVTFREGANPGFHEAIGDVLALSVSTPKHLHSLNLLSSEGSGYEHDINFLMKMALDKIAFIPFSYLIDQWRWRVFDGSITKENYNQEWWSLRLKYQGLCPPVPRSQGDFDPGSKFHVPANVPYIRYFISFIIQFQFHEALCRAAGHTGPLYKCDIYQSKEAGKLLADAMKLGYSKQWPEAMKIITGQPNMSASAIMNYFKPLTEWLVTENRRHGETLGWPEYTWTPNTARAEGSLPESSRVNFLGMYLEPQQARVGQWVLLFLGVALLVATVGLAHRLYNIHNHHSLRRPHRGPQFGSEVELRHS
Kind of experiment: Inhibition of angiotensin I converting enzyme (substrate N-Cbz-Phe-His-Leu). Particulars: ACE purified from rat testicle. How it is done:
ACE is purified from rat testicle according to the procedure described by Pantaliano et al. (Biochemistry, 1984, 23, pp. 1037-1042).
The enzyme activity is measured using the synthetic substrate N-Cbz-Phe-His-Leu, Km=[…] (Piquilloud Y. et al., Biochem. Biophys. Acta, 1970, 206, pp. 136-142).

The next experiment deals with T3, ECE-1c (Homo sapiens, UniProt P42892).
T3 construct: made in house; host or cells: Cos-7 cells (pcDNA3 vector, electroporation); membrane fraction extracted with 1% beta-octylglucose
T3 sequence (P42892 1-754 isoform P42892-3): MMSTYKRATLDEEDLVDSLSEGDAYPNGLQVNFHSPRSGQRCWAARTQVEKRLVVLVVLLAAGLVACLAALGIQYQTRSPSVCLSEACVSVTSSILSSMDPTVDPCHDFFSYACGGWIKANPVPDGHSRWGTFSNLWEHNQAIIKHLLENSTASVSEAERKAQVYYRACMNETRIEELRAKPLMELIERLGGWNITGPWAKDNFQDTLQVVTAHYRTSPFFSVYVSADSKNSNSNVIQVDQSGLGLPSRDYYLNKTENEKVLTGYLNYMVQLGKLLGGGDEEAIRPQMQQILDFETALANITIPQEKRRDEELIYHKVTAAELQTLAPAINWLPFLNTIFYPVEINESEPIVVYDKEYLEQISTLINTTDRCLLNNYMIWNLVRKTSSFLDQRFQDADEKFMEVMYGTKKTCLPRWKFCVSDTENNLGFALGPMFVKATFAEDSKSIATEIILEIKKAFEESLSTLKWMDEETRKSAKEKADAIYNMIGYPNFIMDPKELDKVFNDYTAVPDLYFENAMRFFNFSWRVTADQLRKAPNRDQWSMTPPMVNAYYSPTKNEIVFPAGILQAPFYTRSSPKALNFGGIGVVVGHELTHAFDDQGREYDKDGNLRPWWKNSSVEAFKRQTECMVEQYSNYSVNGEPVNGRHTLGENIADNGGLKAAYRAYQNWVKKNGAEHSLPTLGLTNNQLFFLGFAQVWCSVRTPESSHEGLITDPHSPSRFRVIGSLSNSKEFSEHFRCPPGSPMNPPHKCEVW
Kind of experiment: Inhibition of endothelin converting enzyme (radiolabelled BigET-1 (19-35) substrate). Particulars: ECE-1c expressed in Cos-7 cells; preincubated 10 minutes at 37° C., pH 6.5; read-out: Ki, inhibition of big endothelin converting enzyme. How it is done:
The cDNA of ECE-1c (membrane form of the enzyme, Biochem. J., 1997, 328, pp. 871-877), was inserted into a pcDNA3 eucaryotic expression vector and then transfected by electroporation and expressed in Cos-7 cells.
To measure the ECE activity, the cells are homogenised and the membrane fraction is recovered. The enzyme is extracted by dissolution in β-octylglucose (1%).
The peptide BigET-1 (19-35) was prepared by solid phase synthesis in Fmoc chemistry and purified by semi-preparative HPLC. The propionylation of the peptide was effected by the action of N-succinimidyl-[2,3-^3H]-propionate on the peptide BigET-1 (19-35) and the radiolabelled product was purified by HPLC. The specific activity of the substrate is 97 Ci/mmole.
ECE-1c (10 μl of a solution diluted to 1/10) is dissolved in 400 μl of Trismaleate 50 mM, pH 6.5, in the presence of 250 mM NaCl. The reaction is initiated by the addition of 10 μl of the radioactive substrate (final concentration 1×10^−9 M). After incubation for 1 hour at 37° C., the reaction is stopped by the addition of 600 μl of ethyl acetate. The metabolite is separated from the intact substrate by liquid—liquid extraction. The radioactivity of the metabolite is determined by liquid scintillation. The kinetic constants of the substrate are: Km=[…] and Vmax=2.98±0.24 mmol/mg. prot./min.
The controls of 0% and 100% degradation are obtained, respectively, by incubation of the substrate with the inactivated enzyme and with the native enzyme in the absence of inhibitors.

The values below come from patent US6716852B2, “Amino acid derivatives and use thereof as NEP, ACE and ECE inhibitors” (Les Laboratories Servier, priority 2000, dated 2004).

Each structure is given as a SMILES string.

On to `O=C(N[C@@H](Cc1c[nH]c2ccccc12)C(=O)O)C(CS)C1CCc2cc(Br)ccc21` (stereo partly drawn) [13 (2S-3R-4S), N-[2-(5-Bromo-2,3-dihydro-1H-inden-1-yl)-3-mercaptopropanoyl]-tryptophan], for which the Ki (usually the equilibrium dissociation constant of an inhibitor or competing ligand from its target) came out at 3.28 ± 0.35 nM on Neutral endopeptidase, 4.09 ± 0.49 nM in experiment [1] and 24.4 ± 1.4 nM on ECE-1c.
Regarding `O=C(N[C@@H](Cc1c[nH]c2ncccc12)C(=O)O)C(CS)C1CCc2cc(Br)ccc21` (stereo partly drawn) [33 (2S-3R-4S), N-[2-(5-Bromo-2,3-dihydro-1H-inden-1-yl)-3-mercaptopropanoyl]-3-(1H-pyrrolo [2,3-b]pyridin-3-yl)alanine], the Ki on Neutral endopeptidase is 2.91 ± 0.67 nM; in experiment [1], 1.32 ± 0.17 nM; on ECE-1c, 23.3 ± 3.2 nM.
Consider `O=C(N[C@@H](Cc1c[nH]c2c1ccc1cccnc12)C(=O)O)C(CS)C1CCc2cc(Br)ccc21` (stereo partly drawn) [63 (2S-3R-4S), N-[2-(5-Bromo-2,3-dihydro-1H-inden-1-yl)-3-mercaptopropanoyl]-3-(1H-pyrrolo[3,2-h]quinolin-3-yl)alanine], for which the values for the Ki (at Neutral endopeptidase; in experiment [1]; on ECE-1c) were 10.2 ± 0.3 nM, 3.7 ± 0.38 nM and 21.2 ± 2.5 nM, respectively.
